In patent publication US8067393B2 (priority 2005, dated 2011):
pIC50: −log10 of the molar value. Like-named read-outs stand apart in the source and are kept apart here.

What was measured:
RCA120 = RCA120 (Ricinus communis, UniProt P06750); format: binding, caster bean; parameters: key to Degree of dissociation: ⊚: lectin was completely dissociated; ◯: lectin was almost completely dissociated; Δ: lectin was dissociated with residual sugar-protein interactant (aggregate); X: the lactose-RCA120 interactant kept in aggregated state, and lectin was not dissociated therefrom
ConA [1] = target: T1, ConA (Canavalia ensiformis, UniProt P02866); test: Dissociation of ConA from maltose-ConA interactant by added glucose; format: binding; details: visual observation
Method: 100 μl of PBS-T (0.05%) solution containing ConA at 250 μg/ml was placed in an Eppendorf tube. […] Then, a mixture solution was vortexed for at least 10 seconds. Thereafter, the resulting mixture solution was left for approximately 2 hours, and a sugar-protein interactant was precipitated out of the mixture solution by centrifugation. Then, supernatant thereof was removed, and the sugar-protein interactant was washed with PBS-T (0.05%) solution and water several times. After the washing, 100 μl of 200 mM glucose aqueous solution was added to the sugar-protein interactant, and the resulting mixture solution was left for approximately 1 hour.
First, 25 μl of PBS-T (0.05%) solution containing RCA120 at 250 μg/ml was placed in an Eppendorf tube. To the solution was added 25 μl of the colloid solution of lactose-immobilized gold nanoparticles which was prepared in Example 4. Then, a mixture solution was vortexed for at least 10 seconds. Thereafter, the resulting mixture solution was left for approximately 2 hours, and a sugar-protein interactant (lactose-RCA interactant) was precipitated out of the mixture solution by centrifugation. Then, supernatant thereof was removed, and the sugar-protein interactant was washed with PBS-T (0.05%) solution and water several times. […] The results were evaluated by visual observation and UV-Vis measurement. […]

ConA [2] = target: T1, ConA; format: binding
Method: A PBS-T (0.05%) solution containing glucose, maltose, GlcNAc, galactose, or lactose as a sugar chain at a concentration of 400 mM was prepared.
First, a PBS-T (0.05%) solution containing ConA or RCA120 at a concentration of 2 μM was prepared as a lectin solution, and the lectin solution was introduced to 96-well titer plate by adding 10 μl in each well. Then, a glucose solution, a maltose solution, or a GlcNAc solution was added to a ConA-added well by 20 μl in each well. A galactose solution or a lactose solution was added to a RCA120-added well by 20 μl in each well. The resulting solutions were stirred at a room temperature for 1 hour. […] The resulting solutions were stirred at a room temperature for 1 hour. After the stirring, absorbance of the stirred solutions at 525 nm was measured.
Values below the “after” column are IC50 obtained in a case where the sugar chain was added to an aggregate of the lectin and the colloid solution. Values below the “before” column are IC50 obtained in a case where the colloid solution was added to the admixture of the lectin and the sugar chain.

Structure (SMILES) | Degree of dissociation (RCA120) | concentration of added sugar solution at which excellent RCA120 dissociation was observed (RCA120) | concentration of added sugar solution at which excellent ConA dissociation was observed (ConA [1]) | pIC50 (ConA [2]; read-out: IC50 after) | pIC50 (ConA [2]; read-out: IC50 before)
O=C[C@H](O)[C@@H](O)[C@@H](O)[C@H](O)CO [galactose] | Δ and X and ◯ | ≥ 25 mM | ≥ 50 mM | – | –
CC(=O)N[C@H]1C(O)O[C@H](CO)[C@@H](O)[C@@H]1O (some centres unmarked) [GlcNAc, N-acetyl glucosamine] | – | – | – | 1.10 | 1.64
